Test results reported in ChEMBL document CHEMBL5543174, “A Nonbactericidal Anionic Antimicrobial Peptide Provides Prophylactic and Therapeutic Efficacies against Bacterial Infections in Mice by Immunomodulatory-Antithrombotic Duality” (J Med Chem, 2024).
The source made the active and inactive calls. The calls are words filed in the database; no cut-off is given here.

Key:
[1] = test system: Lymphocyte; assay: Immunomodulatory activity in mouse spleen derived lymphocyte assessed as increase in lymphocyte proliferation at < 200 ug/ml incubated for 24 hrs by CCK-8 assay; format: functional, cell-based; details: dose < 200.0 µg/ml
[2] = test system: Pseudomonas aeruginosa; assay: Antimicrobial activity against Pseudomonas aeruginosa ATCC 27853 assessed as inhibition of microbial growth at <= 200 ug/ml incubated for 18 hrs by micro-broth dilution method; format: functional, organism-based; details: dose <= 200.0 µg/ml
[3] = test system: Salmonella paratyphi; assay: Antimicrobial activity against Salmonella paratyphi ATCC 9150 assessed as inhibition of microbial growth at <= 200 ug/ml incubated for 18 hrs by micro-broth dilution method; format: functional, organism-based; details: Salmonella enterica subsp. enterica serovar Paratyphi A, dose <= 200.0 µg/ml
[4] = test system: Escherichia coli; assay: Antimicrobial activity against Escherichia coli ATCC 25922 assessed as reduction in microbial colony forming unit at 200 ug/ml incubated for 1 to 4 hrs by time-kill kinetics based analysis; format: functional, organism-based; details: dose 200.0 µg/ml, time 1-4 hrs
[5] = test system: Escherichia coli; assay: Antimicrobial activity against Escherichia coli ATCC 25922 assessed as reduction in metabolic activity at < 200 ug/ml incubated for 1 to 4 hrs by CCK-8 assay; format: functional, organism-based; details: dose < 200.0 µg/ml, time 1-4 hrs
[6] = test system: Staphylococcus aureus; assay: Antibacterial activity against Staphylococcus aureus ATCC 25923 infected in C57BL/6 mouse assessed as reduction in bacterial load at 10 mg/kg,ip pre-administrated 5 hrs before bacterial infection; format: functional, organism-based
[7] = test system: Staphylococcus aureus; assay: Antibacterial activity against Methicillin-resistant Staphylococcus aureus infected in C57BL/6 mouse assessed as reduction in bacterial load at 10 mg/kg,ip pre-administrated 5 hrs before bacterial infection; format: functional, organism-based
[8] = test system: Staphylococcus aureus; assay: Antibacterial activity against Methicillin-resistant Staphylococcus aureus infected in C57BL/6 mouse assessed as reduction in bacterial load at 10 mg/kg,ip administrated 5 hrs after bacterial infection; format: functional, organism-based
[9] = test system: Staphylococcus aureus; assay: Antibacterial activity against Staphylococcus aureus ATCC 25923 infected in C57BL/6 mouse assessed as reduction in TNF-alpha level in peritoneal fluid at 10 mg/kg,ip administrated 5 hrs after bacterial infection measured after 24 hrs by ELISA; format: functional, organism-based; details: time 19.0 hrs
[10] = test system: Escherichia coli; assay: Antibacterial activity against Escherichia coli ATCC 25922 infected in C57BL/6 mouse assessed as reduction in IL-6 level in peritoneal fluid at 10 mg/kg,ip administrated 5 hrs after bacterial infection measured after 24 hrs by ELISA; format: functional, organism-based; details: time 19.0 hrs
[11] = test system: Staphylococcus aureus; assay: Antibacterial activity against Methicillin-resistant Staphylococcus aureus infected in C57BL/6 mouse assessed as reduction in TNF-alpha level in peritoneal fluid at 10 mg/kg,ip pre-administrated 5 hrs before bacterial infection measured after 24 hrs by ELISA; format: functional, organism-based; details: time 29.0 hrs
[12] = test system: Staphylococcus aureus; assay: Antibacterial activity against Methicillin-resistant Staphylococcus aureus infected in C57BL/6 mouse assessed as reduction in IL-6 level in peritoneal fluid at 10 mg/kg,ip administrated 5 hrs after bacterial infection measured after 24 hrs by ELISA; format: functional, organism-based; details: time 19.0 hrs
[13] = test system: Escherichia coli; assay: Antibacterial activity against Carbapenem-resistant Escherichia coli infected in C57BL/6 mouse assessed as reduction in TNF-alpha level in peritoneal fluid at 10 mg/kg,ip administrated 5 hrs after bacterial infection measured after 24 hrs by ELISA; format: functional, organism-based; details: time 19.0 hrs
[14] = test system: Staphylococcus aureus; assay: Antibacterial activity against Staphylococcus aureus ATCC 25923 infected in C57BL/6 mouse assessed as reduction in inflammatory injury in lung at 10 mg/kg,ip pre-administrated 5 hrs before bacterial infection measured after 24 hrs by hematoxylin and eosin staining based analysis; format: functional, organism-based; details: time 29.0 hrs
[15] = test system: Staphylococcus aureus; assay: Antibacterial activity against Methicillin-resistant Staphylococcus aureus infected in C57BL/6 mouse assessed as reduction in inflammatory injury in lung at 10 mg/kg,ip administrated 5 hrs after bacterial infection measured after 24 hrs by hematoxylin and eosin staining based analysis; format: functional, organism-based; details: time 19.0 hrs
[16] = test system: Escherichia coli; assay: Antibacterial activity against Escherichia coli ATCC 25922 infected in C57BL/6 mouse assessed as increase in survival rate at 10 mg/kg,ip pre-administrated 5 hrs before bacterial infection measured after 7 days; format: functional, organism-based; details: time 7.0 day
[17] = test system: Mus musculus; assay: Immunomodulatory activity in cyclophosphamide immunosuppressed C57BL/6 mouse with neutrophil depletion model assessed as increase in number of neutrophil in peritoneal lavage at 10 mg/kg,ip administration measured after 24 hrs by flow cytometry; format: functional, organism-based
[18] = test system: Mus musculus; assay: Immunomodulatory activity in clodronate liposome immunosuppressed C57BL/6 mouse with monocyte depletion model assessed as increase in number of monocyte in peritoneal lavage at 10 mg/kg,ip administration measured after 24 hrs by flow cytometry; format: functional, organism-based
[19] = test system: Mus musculus; assay: Induction of chemotaxis in C57BL/6 mouse assessed as upregulation of MCP-1 expression in peritoneal lavage at 10 mg/kg,ip administration measured at 5 to 24 hrs by ELISA; format: functional, organism-based; details: time 5-24 hrs
[20] = test system: Peritoneal macrophage; assay: Immunomodulatory activity in mouse Peritoneal macrophage assessed as decrease in LPS-induced IL-6 production at 25 to 100 ug/ml incubated for 6 hrs by ELISA; format: functional, cell-based; details: dose 25-100 µg/ml
[21] = test system: Neutrophil; assay: Induction of ROS production in mouse bone marrow derived neutrophil at 25 to 100 ug/ml incubated for 6 hrs by DCFA-DA staining based flow cytometry; format: functional, cell-based; details: dose 25-100 µg/ml
[22] = test system: Neutrophil; assay: Induction of immune response in mouse bone marrow derived neutrophil assessed as neutrophil extracellular trap formation at 100 ug/ml incubated for 4 hrs by DAPI staining based fluorescence microscopic analysis; format: functional, cell-based; details: dose 100.0 µg/ml
[23] = test system: Peritoneal macrophage cell; assay: Induction of chemotaxis in mouse Peritoneal macrophage assessed as increase in macrophage migration at 100 ug/ml preincubated with MTS510 for 30 mins followed by compound addition measured after 8 hrs by crystal violet staining based indirect transwell assay; format: functional, cell-based; details: dose 100.0 µg/ml
[24] = test system: Peritoneal macrophage cell; assay: Induction of chemotaxis in mouse Peritoneal macrophage assessed as increase in macrophage migration at 100 ug/ml preincubated with WRW4 for 30 mins followed by compound addition measured after 8 hrs by crystal violet staining based indirect transwell assay; format: functional, cell-based; details: dose 100.0 µg/ml
[25] = test system: Peritoneal macrophage cell; assay: Induction of chemotaxis in mouse Peritoneal macrophage assessed as upregulation of CXCL2 production at 100 ug/ml preincubated with KN-62 followed by compound addition by ELISA; format: functional, cell-based; details: dose 100.0 µg/ml
[26] = test system: Peritoneal macrophage cell; assay: Induction of chemotaxis in mouse Peritoneal macrophage assessed as upregulation of MCP-1 production at 100 ug/ml preincubated with WRW4 followed by compound addition by ELISA; format: functional, cell-based; details: dose 100.0 µg/ml
[27] = test system: Peritoneal macrophage; assay: Induction of chemotaxis in mouse Peritoneal macrophage assessed as upregulation of MCP-1 production at 100 ug/ml preincubated with MTS510 followed by compound addition by ELISA; format: functional, cell-based; details: dose 100.0 µg/ml
[28] = test system: Peritoneal macrophage; assay: Immunoregulatory activity in mouse Peritoneal macrophage assessed as upregulation of p38 phosphorylation incubated for 1 hr by Western blotting analysis; format: functional, cell-based
[29] = test system: Mus musculus; assay: Antithrombotic activity in BALB/c mouse dorsal skin defect model assessed as increase in skin bleeding time at 10 mg/kg,SC administration; format: functional, organism-based
[30] = test system: Staphylococcus aureus; assay: Antibacterial activity against Methicillin-resistant Staphylococcus aureus infected in C57BL/6 mouse with cyclophosphamide-induced neutrophil depletion model assessed as reduction of bacterial burden in peritoneal cavity at 10 mg/kg,ip administrated 5 hrs after bacterial infection measured after 24 hrs; format: functional, organism-based; details: time 19.0 hrs

CC[C@H](C)[C@H](NC(=O)[C@@H]1CSSC[C@H](NC(=O)[C@H](CCC(=O)O)NC(=O)[C@@H](NC(=O)[C@H](CCCCN)NC(=O)[C@H](Cc2c[nH]cn2)NC(=O)[C@@H](NC(=O)[C@H](CCCCN)NC(=O)[C@H](CCC(=O)O)NC(=O)[C@H](C)NC(=O)[C@H](CCC(=O)O)NC(=O)[C@H](CCC(=O)O)NC(=O)[C@H](CCC(=O)O)NC(=O)[C@H](C)N)[C@@H](C)O)[C@@H](C)O)C(=O)N[C@@H](CC(C)C)C(=O)N[C@@H](CCC(=O)O)C(=O)N1)C(=O)N[C@@H](Cc1ccccc1)C(=O)N[C@H](C(=O)N[C@@H](CC(C)C)C(=O)N[C@@H](CC(C)C)C(=O)N1CCC[C@H]1C(=O)N1CCC[C@@H]1C(=O)N[C@H](C)C(=O)O)[C@@H](C)O
Activity [1]: inactive | Activity [2]: inactive | Activity [3]: inactive | Activity [4]: inactive | Activity [5]: inactive | Activity [6]: Active | Activity [7]: Active | Activity [8]: Active | Activity [9]: Active | Activity [10]: Active | Activity [11]: Active | Activity [12]: Active | Activity [13]: Active | Activity [14]: Active | Activity [15]: Active | Activity [16]: Active | Activity [17]: inactive | Activity [18]: inactive | Activity [19]: inactive | Activity [20]: inactive | Activity [21]: inactive | Activity [22]: Active | Activity [23]: Active | Activity [24]: Active | Activity [25]: Active | Activity [26]: Active | Activity [27]: Active | Activity [28]: Dose-Dependent Effect | Activity [29]: inactive | Activity [30]: inactive
